Measured values reported in patent US9890175B2, “Taxane compound, and preparation method and use thereof” (JIANGSU TASLY DIYI PHARMACEUTICAL CO., LTD., priority 2013, dated 2018).

Columns and labels:
Type in all cases: cell-based
LNCaP prostate cancer = experiment: MTT proliferation inhibition, LNCaP; conditions: Homo sapiens, read-out: Proliferation inhibition rate, LNCaP Prostate cancer
Text: (§1) 1. Cytotoxicity Assay Using Human Tumor Cell Lines
(§2) Paclitaxel was used as the positive drug.

B16 melanoma = experiment: MTT proliferation inhibition, B16; conditions: B16, read-out: Proliferation inhibition rate, B16 Melanoma
Text: as §1, §2

HCT 116 colon cancer = experiment: MTT proliferation inhibition, HCT 116; conditions: Homo sapiens, HCT-116, read-out: Proliferation inhibition rate, HCT 116 Colon cancer
Text: as §1, §2

HT-29 colon cancer = experiment: MTT proliferation inhibition, HT-29; conditions: Homo sapiens, HT-29, read-out: Proliferation inhibition rate, HT29 Colon cancer
Text: as §1, §2

A2780 ovarian cancer = experiment: MTT proliferation inhibition, A2780; conditions: Homo sapiens, A2780, read-out: Proliferation inhibition rate, A2780 Ovarian cancer
Text: as §1, §2

BGC-823 gastric cancer = experiment: MTT proliferation inhibition, BGC-823; conditions: Homo sapiens, BGC-823, read-out: Proliferation inhibition rate, BGC-823 Gastric cancer
Text: as §1, §2

[1] = system: MDA-MB-436 breast cancer cells; experiment: MTT proliferation inhibition, MDA-MB-436; conditions: Homo sapiens, MDA-MB-436, read-out: Proliferation inhibition rate, MDA-MB-436 Breast cancer
Text: as §1, §2

**Q.** With `CO[C@H]1C[C@H]2OC[C@@]2(OC(C)=O)[C@H]2[C@H](OC(=O)c3ccccc3)[C@]34OC(=O)O[C@H]3[C@H](OC(=O)[C@H](O)[C@@H](NC(=O)OC(C)(C)C)c3ccccc3)C(C)=C([C@@H](OC(=O)N(C)C)C(=O)[C@]12C)C4(C)C` [PCMI-08] as the molecule, how does the inhibition at 1 µM (LNCaP prostate cancer) read?
**A.** 84.3%

**Q.** What about the inhibition at 1 µM (B16 melanoma) of the same molecule?
**A.** 70.6%

**Q.** What about the inhibition at 1 µM (HCT 116 colon cancer) of the same molecule?
**A.** 58.7%

**Q.** What about the inhibition at 1 µM (HT-29 colon cancer) of the same molecule?
**A.** 81.7%

**Q.** What about the inhibition at 1 µM (A2780 ovarian cancer) of the same molecule?
**A.** 92.5%

**Q.** What about the inhibition at 1 µM (BGC-823 gastric cancer) of the same molecule?
**A.** 80.8%

**Q.** And the inhibition at 1 µM [1]?
**A.** 65.7%
